Tests used:
HCoV-OC43 (VR-1558) = experiment: Anti coronavirus activity: viral CPE inhibition in Vero 76 cells (microscopy, neutral red); type: cell-based; details: hCoV-OC43 (beta)
AAK1 = AAK1 (Homo sapiens, UniProt Q2M2I8); experiment: Kinase inhibition assay (HotSpot); type: biochemical; details: 10 μM ATP; read-out: Compound IC50, AAK1
From the text: (§1) In vitro profiling of lipid and tyrosine kinases was accomplished using the “HotSpot” assay platform.

ABL2 = ABL2 (Homo sapiens, UniProt P42684); experiment: Kinase inhibition assay (HotSpot); type: biochemical; details: 10 μM ATP; read-out: Compound IC50, ABL2
From the text: as §1

BIKE = BIKE (Homo sapiens, UniProt Q9NSY1); experiment: Kinase inhibition assay (HotSpot); type: biochemical; details: 10 μM ATP; read-out: Compound IC50, BIKE
From the text: as §1

CSNK2A1 = CSNK2A1 (Homo sapiens, UniProt P68400); experiment: Kinase inhibition assay (HotSpot); type: biochemical; details: 10 μM ATP; read-out: Compound IC50, CSNK2A1
From the text: as §1

CSNK2A2 = CSNK2A2 (Homo sapiens, UniProt P19784); experiment: Kinase inhibition assay (HotSpot); type: biochemical; details: 10 μM ATP; read-out: Compound IC50, CSNK2A2
From the text: as §1

GAK = molecular target: T1, GAK (Homo sapiens, UniProt O14976); experiment: Kinase inhibition assay (HotSpot); type: biochemical; details: 10 μM ATP; read-out: Compound IC50, GAK
T1 sequence (O14976 1-1311): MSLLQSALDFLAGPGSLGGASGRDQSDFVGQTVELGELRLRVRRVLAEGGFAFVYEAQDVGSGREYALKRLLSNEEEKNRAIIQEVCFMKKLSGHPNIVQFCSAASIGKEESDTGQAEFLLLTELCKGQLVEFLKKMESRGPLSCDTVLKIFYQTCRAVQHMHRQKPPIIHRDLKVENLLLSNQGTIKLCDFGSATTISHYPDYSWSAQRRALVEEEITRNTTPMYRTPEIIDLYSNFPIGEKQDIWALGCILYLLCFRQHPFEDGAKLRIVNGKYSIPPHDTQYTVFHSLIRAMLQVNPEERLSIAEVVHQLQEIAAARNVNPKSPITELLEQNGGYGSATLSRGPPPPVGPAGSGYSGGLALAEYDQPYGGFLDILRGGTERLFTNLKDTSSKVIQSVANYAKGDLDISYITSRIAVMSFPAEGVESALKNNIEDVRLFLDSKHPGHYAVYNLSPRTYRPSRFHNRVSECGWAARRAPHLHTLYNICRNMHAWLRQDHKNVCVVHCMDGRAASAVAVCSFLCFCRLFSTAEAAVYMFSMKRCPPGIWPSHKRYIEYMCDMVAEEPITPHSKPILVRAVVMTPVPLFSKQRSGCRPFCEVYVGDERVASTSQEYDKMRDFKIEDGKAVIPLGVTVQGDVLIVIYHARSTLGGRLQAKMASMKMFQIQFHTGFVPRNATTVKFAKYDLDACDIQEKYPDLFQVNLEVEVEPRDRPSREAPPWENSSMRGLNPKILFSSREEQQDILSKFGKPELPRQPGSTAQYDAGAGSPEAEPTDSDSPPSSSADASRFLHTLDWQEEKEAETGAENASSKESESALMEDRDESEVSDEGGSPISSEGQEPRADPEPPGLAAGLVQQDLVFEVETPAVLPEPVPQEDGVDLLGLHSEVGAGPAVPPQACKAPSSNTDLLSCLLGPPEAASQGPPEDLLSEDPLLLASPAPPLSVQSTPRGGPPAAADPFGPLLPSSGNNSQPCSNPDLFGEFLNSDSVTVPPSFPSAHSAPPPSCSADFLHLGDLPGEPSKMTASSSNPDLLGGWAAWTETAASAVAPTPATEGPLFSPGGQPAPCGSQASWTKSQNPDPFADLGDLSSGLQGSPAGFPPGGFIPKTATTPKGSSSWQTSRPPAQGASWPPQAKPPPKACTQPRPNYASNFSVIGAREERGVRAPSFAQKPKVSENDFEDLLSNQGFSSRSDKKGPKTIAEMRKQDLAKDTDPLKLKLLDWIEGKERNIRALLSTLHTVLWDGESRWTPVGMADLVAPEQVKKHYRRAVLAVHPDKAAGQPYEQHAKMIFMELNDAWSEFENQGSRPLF
From the text: as §1

MNK2 = MNK2 (Homo sapiens, UniProt Q9HBH9); experiment: Kinase inhibition assay (HotSpot); type: biochemical; details: 10 μM ATP; read-out: Compound IC50, MNK2
From the text: as §1

PI3Kb = PI3Kb (Homo sapiens, UniProt P42338); experiment: Kinase inhibition assay (HotSpot); type: biochemical; details: 10 μM ATP; read-out: Compound IC50, PI3Kb
From the text: as §1

[1] = tested on: cell culture-derived HCV (HCVcc); type: cell-based, Hepatitis C virus

Chain of ABL2 (P42684 whole entry): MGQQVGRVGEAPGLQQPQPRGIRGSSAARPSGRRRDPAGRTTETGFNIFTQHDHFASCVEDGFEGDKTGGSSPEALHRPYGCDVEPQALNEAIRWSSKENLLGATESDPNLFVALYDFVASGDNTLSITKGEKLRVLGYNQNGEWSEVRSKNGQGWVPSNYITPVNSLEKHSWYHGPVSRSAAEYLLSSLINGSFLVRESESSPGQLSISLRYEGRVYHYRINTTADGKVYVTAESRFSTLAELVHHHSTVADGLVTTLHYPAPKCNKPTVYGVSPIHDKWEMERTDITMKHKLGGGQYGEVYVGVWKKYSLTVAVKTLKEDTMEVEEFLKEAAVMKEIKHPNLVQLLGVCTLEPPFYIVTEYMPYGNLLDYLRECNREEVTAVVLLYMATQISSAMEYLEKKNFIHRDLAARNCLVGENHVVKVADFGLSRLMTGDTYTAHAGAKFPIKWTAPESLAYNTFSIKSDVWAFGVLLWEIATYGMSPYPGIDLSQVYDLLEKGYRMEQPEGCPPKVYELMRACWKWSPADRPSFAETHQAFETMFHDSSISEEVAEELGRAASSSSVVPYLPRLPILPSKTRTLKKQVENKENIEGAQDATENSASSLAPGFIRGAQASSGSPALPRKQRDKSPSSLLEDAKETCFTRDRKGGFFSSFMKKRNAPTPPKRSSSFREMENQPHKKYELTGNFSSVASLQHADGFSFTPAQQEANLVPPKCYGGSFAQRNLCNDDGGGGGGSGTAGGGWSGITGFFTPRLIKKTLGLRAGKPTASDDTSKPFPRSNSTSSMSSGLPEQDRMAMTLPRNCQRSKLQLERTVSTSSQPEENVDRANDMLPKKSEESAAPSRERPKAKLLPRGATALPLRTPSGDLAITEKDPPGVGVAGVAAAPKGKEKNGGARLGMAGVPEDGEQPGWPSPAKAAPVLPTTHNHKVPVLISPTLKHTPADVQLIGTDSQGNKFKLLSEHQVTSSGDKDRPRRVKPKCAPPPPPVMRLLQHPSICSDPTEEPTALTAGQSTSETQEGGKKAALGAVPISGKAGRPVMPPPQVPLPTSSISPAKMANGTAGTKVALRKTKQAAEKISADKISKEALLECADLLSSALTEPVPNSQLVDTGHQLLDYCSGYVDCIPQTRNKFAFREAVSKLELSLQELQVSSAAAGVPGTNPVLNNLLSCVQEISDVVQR
Chain of BIKE (Q9NSY1 whole entry): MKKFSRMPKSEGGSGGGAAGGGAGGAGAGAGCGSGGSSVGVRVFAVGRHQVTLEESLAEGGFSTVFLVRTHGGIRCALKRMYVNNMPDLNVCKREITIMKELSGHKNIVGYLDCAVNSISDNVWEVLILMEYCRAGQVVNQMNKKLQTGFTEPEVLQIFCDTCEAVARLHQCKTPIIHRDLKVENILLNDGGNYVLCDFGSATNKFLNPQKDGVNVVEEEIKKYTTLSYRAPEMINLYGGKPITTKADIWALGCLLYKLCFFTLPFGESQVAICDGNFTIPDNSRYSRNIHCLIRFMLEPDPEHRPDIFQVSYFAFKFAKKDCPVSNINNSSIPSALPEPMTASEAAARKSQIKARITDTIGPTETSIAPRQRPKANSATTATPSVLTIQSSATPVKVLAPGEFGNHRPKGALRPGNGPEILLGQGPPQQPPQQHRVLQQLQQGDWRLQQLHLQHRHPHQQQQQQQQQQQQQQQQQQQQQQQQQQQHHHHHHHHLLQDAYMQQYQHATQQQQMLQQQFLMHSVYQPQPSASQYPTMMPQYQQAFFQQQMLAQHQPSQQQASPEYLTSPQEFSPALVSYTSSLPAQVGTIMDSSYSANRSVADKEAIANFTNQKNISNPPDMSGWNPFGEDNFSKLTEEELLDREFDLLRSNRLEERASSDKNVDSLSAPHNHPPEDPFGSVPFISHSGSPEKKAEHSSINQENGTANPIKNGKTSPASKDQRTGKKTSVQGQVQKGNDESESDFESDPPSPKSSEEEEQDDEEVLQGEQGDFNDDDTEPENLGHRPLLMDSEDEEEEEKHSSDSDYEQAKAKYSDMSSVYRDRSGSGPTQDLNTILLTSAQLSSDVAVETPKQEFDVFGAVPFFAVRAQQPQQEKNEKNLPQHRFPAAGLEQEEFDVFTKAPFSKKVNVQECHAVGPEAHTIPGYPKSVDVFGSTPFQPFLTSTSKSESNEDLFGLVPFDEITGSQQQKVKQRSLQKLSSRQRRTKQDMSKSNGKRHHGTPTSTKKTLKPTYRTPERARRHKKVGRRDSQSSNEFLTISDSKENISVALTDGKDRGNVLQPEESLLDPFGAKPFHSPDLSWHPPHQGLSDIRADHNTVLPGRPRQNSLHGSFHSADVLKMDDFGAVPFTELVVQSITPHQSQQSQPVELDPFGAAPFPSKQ
Chain of AAK1 (Q2M2I8 whole entry): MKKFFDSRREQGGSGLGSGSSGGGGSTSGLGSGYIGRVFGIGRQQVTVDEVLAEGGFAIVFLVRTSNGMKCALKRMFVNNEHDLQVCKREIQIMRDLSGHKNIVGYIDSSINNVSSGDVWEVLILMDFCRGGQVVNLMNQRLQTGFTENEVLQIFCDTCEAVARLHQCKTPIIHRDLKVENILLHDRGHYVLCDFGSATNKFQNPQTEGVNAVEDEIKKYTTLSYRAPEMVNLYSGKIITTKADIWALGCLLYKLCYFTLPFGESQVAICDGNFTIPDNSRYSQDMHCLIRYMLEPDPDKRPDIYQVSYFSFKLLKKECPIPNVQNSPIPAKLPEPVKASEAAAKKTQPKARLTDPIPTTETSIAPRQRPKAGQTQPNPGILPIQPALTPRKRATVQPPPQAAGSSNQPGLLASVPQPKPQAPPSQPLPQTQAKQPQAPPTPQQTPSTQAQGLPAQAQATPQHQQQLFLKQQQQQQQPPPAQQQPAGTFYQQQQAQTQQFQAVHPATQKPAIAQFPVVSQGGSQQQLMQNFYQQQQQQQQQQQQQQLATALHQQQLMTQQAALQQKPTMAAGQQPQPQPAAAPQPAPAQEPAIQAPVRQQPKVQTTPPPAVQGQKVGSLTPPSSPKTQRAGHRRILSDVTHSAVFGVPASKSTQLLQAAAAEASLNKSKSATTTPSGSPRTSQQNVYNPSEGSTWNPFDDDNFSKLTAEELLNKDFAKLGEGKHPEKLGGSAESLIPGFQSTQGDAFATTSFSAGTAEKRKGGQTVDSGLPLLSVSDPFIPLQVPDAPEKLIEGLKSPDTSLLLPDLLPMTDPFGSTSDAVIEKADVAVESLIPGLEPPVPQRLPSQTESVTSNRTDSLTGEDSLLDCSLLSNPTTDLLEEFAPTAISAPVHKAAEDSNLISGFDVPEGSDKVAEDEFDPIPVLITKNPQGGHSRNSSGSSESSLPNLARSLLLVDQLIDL
Chain of CSNK2A2 (P19784 whole entry): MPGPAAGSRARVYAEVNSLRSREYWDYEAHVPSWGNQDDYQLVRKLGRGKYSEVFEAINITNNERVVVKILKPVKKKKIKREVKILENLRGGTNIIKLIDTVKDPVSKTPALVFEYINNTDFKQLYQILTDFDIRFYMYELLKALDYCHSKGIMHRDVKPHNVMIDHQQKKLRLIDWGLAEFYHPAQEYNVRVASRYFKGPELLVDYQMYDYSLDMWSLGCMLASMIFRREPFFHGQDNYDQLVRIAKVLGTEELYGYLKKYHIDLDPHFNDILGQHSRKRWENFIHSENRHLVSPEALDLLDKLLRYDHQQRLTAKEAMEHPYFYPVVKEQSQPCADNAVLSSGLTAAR
Chain of MNK2 (Q9HBH9 whole entry): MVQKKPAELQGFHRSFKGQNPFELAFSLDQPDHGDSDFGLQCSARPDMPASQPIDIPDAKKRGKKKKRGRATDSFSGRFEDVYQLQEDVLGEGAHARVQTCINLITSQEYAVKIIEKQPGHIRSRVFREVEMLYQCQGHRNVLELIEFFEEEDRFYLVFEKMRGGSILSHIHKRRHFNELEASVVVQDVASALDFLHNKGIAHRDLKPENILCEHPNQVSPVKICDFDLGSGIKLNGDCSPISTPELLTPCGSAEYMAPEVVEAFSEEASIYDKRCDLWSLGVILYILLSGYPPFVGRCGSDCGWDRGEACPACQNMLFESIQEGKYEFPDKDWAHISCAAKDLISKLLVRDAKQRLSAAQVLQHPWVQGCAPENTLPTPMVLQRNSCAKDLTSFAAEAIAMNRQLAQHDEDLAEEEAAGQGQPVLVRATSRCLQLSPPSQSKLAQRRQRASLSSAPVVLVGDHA
Chain of CSNK2A1 (P68400 whole entry): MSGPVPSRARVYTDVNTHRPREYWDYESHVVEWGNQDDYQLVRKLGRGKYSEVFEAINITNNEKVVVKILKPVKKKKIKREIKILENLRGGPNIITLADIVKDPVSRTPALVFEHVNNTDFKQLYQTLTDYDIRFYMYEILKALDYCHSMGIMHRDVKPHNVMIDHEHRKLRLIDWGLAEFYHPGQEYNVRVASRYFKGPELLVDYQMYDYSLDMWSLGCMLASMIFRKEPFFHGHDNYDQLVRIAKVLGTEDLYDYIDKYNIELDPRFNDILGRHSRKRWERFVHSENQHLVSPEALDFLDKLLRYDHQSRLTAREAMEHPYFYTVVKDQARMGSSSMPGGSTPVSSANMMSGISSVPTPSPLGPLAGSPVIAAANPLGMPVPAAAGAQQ

## COc1cc(-c2cc(=O)c3c(O)cc(O)c(CC=C(C)C)c3o2)ccc1O [FBL-03G]
HCoV-OC43 (VR-1558)
  EC50: 420 nM
  SI (CC50/EC50): 6.9
AAK1
  IC50: 4 nM
ABL2
  IC50: 274 nM
BIKE
  IC50: 258 nM
CSNK2A1
  IC50: 20 nM
CSNK2A2
  IC50: 4 nM
GAK
  IC50: 8 nM
MNK2
  IC50: 549 nM
PI3Kb
  IC50: 136 nM
Vero 76 cells
  CC50: 2900 nM

## Human interferon alpha-2b [rIFNa-2b]
[1]
  EC50: 0.63 IU/mL

Source: US20210346339A1, “THERAPEUTIC FLAVONOID BASED ANTIVIRAL AGENTS” (priority 2016, published 2021)
